Experimental data taken from US20120064121A1, “PYRIDINE COMPOUNDS FOR INFLAMMATION AND IMMUNE-RELATED USES” (SYNTA PHARMACEUTICALS CORP., priority 2008, published 2012).
Counter-ions that a name gives are not always drawn.

tested on: IL-2 production; experiment: Inhibition of IL-2 production in PHA-activated Jurkat cells (ELISA); format: cell-based; details: Homo sapiens, Jurkat, 20 h, PHA 2.5 μg/mL, IL-2 ELISA
Description: Jurkat cells were placed in a 96 well plate (0.5 million cells per well in 1% FBS medium) then a test compound of this invention was added at different concentrations. After 10 minutes, the cells were activated with PHA (final concentration 2.5 μg/mL) and incubated for 20 hours at 37° C. under CO2. The final volume was 200 μL. Following incubation, the cells were centrifuged and the supernatants collected and stored at −70° C. prior to assaying for IL-2 production. A commercial ELISA kit (IL-2 Eli-pair, Diaclone Research, Besancon, France) was used to detect production of IL-2, from which dose response curves were obtained. The IC50 value was calculated as the concentration at which 50% of maximum IL-2 production after stimulation was inhibited versus a non-stimulation control.

Row | Compound | IC50
1 | Cc1ccc(-c2ccno2)cc1-c1ccc(NCc2c(F)cccc2F)cn1 [Compound 3, N-(2,6-difluorobenzyl)-6-(5-(isoxazol-5-yl)-2-methylphenyl)pyridin-3-amine] | 48 nM
2 | Fc1cccc(F)c1CNc1ccc(-c2cc(-c3nccs3)ccc2Cl)nc1 [Compound 4, 6-(2-chloro-5-(thiazol-2-yl)phenyl)-N-(2,6-difluorobenzyl)pyridin-3-amine] | 19 nM
3 | Fc1cccc(F)c1CNc1ccc(-c2cc(-c3ncco3)ccc2Cl)cn1 [Compound 5, 5-(2-chloro-5-(oxazol-2-yl)phenyl)-N-(2,6-difluorobenzyl)pyridin-2-amine] | 17 nM
4 | O=C(Nc1ccc(-c2cc(-c3nccs3)ccc2Cl)cn1)c1c(F)cccc1C(F)(F)F [Compound 13, N-(5-(2-chloro-5-(thiazol-2-yl)phenyl)pyridin-2-yl)-2-fluoro-6-(trifluoromethyl)benzamide] | 66 nM
5 | O=C(Nc1ccc(-c2cc(-c3nccs3)ccc2Cl)nc1)c1ccccc1C(F)(F)F [Compound 14, N-(6-(2-chloro-5-(thiazol-2-yl)phenyl)pyridin-3-yl)-2-(trifluoromethyl)benzamide] | 71 nM
6 | Cc1cc[nH]c1C(=O)Nc1ccc(-c2cc(-c3nccs3)ccc2Cl)cn1 [Compound 15, N-(5-(2-chloro-5-(thiazol-2-yl)phenyl)pyridin-2-yl)-3-methyl-1H-pyrrole-2-carboxamide] | 348 nM
7 | Cn1cncc1C(=O)Nc1ccc(-c2cc(-c3nccs3)ccc2Cl)cn1 [Compound 16, N-(5-(2-chloro-5-(thiazol-2-yl)phenyl)pyridin-2-yl)-1-methyl-1H-imidazole-5-carboxamide] | 91 nM
8 | Cc1ncsc1C(=O)Nc1ccc(-c2cc(-c3nccs3)ccc2Cl)cn1 [Compound 17, N-(5-(2-chloro-5-(thiazol-2-yl)phenyl)pyridin-2-yl)-4-methylthiazole-5-carboxamide] | 81 nM

Continued, values first:

Row | IC50 | Compound
9 | 13 nM | O=C(Nc1ccc(-c2cc(-c3nccs3)ccc2Cl)cn1)c1ccccc1F [Compound 11, N-(5-(2-chloro-5-(thiazol-2-yl)phenyl)pyridin-2-yl)-2-fluorobenzamide]
10 | 12 nM | Cc1ccc(-c2ncccn2)cc1-c1ccc(NC(=O)c2c(F)cccc2F)nc1 [Compound 7, 2,6-difluoro-N-(5-(2-methyl-5-(pyrimidin-2-yl)phenyl)pyridin-2-yl)benzamide]
11 | 11 nM | O=C(Nc1ccc(-c2cc(-c3nccs3)ccc2Cl)cn1)c1ccncc1F [Compound 8, N-(5-(2-chloro-5-(thiazol-2-yl)phenyl)pyridin-2-yl)-3-fluoroisonicotinamide]
12 | 10 nM | O=C(Nc1ccc(-c2cc(-c3nccs3)ccc2Cl)cn1)c1c(F)cccc1Cl [Compound 12, 2-chloro-N-(5-(2-chloro-5-(thiazol-2-yl)phenyl)pyridin-2-yl)-6-fluorobenzamide]
13 | 6 nM | O=C(Nc1ccc(-c2cc(-c3cccnc3)ccc2Cl)cn1)c1c(F)cccc1F [Compound 18, N-(5-(2-chloro-5-(pyridin-3-yl)phenyl)pyridin-2-yl)-2,6-difluorobenzamide]
14 | 3 nM | Cc1ccc(-c2cccnc2)cc1-c1ccc(NC(=O)c2c(F)cccc2F)nc1 [Compound 6, 2,6-difluoro-N-(5-(2-methyl-5-(pyridin-3-yl)phenyl)pyridin-2-yl)benzamide]

same assay, conditions: PHA 2.5 μg/mL, 20 hours, IL-2 ELISA

Row | IC50 | Compound
15 | 56 nM | Fc1cccc(F)c1CNc1ccc(-c2cc(-c3nccs3)ccc2Cl)cn1 [Compound 1, 5-(2-chloro-5-(thiazol-2-yl)phenyl)-N-(2,6-difluorobenzyl)pyridin-2-amine]
16 | > 1000 nM | Cc1ccc(-c2cccnc2)cc1-c1ccc(NC(=O)c2c(F)cccc2Cl)nc1 [Compound 9, 2-chloro-6-fluoro-N-(5-(2-methyl-5-(pyridin-3-yl)phenyl)pyridin-2-yl)benzamide]

same assay, conditions: PHA 2.5 μg/mL, 20 hours, IL-2 ELISA, hydrochloride

Row | IC50 | Compound
17 | 21 nM | Fc1cccc(F)c1CNc1ccc(-c2cc(-c3nccs3)ccc2Cl)cn1 [Compound 2, 5-(2-chloro-5-(thiazol-2-yl)phenyl)-N-(2,6-difluorobenzyl)pyridin-2-amine hydrochloride]
18 | 7 nM | Cc1ccc(-c2cccnc2)cc1-c1ccc(NC(=O)c2c(F)cccc2Cl)nc1 [Compound 10, 2-chloro-6-fluoro-N-(5-(2-methyl-5-(pyridin-3-yl)phenyl)pyridin-2-yl)benzamide hydrochloride]
